Reference: US20120277286A1, “COMPOSITIONS AND METHODS FOR THE TREATMENT OR PREVENTION OF MITOCHONDRIAL DISEASES” (The Government of the USA, as represented by the Secretary, …, priority 2009, published 2012)

Tested on: rat cortical neurons
Test: Endogenous Parkin in heavy membrane pellet, Western blot
Format: cell-based
Conditions: CCCP 5 hours
Method: HeLa cells stably expressing YFP-Parkin using the Flp-In system (Invitrogen) were creating according to the manufacturer's instructions and maintained in 300 μg/ml hygromycin (Sigma-Aldrich). Rat cortical neurons were isolated on embryonic day 18 and grown in neurobasal media supplemented with B-27, L-glutamine, and penicillin/streptomycin. All cell culture materials were obtained from Invitrogen and all chemicals were obtained from Sigma-Aldrich. Chemicals were prepared from DMSO stock solutions, except paraquat, N-acetyl-cysteine, and 3-methyladenine, which were added fresh to media. Mfn1−/−, Mfn2−/− and Mfn1−/−, Mfn2−/− double knockout MEFs were generously donated by D. C. […]
Image contrast and brightness were adjusted in Photoshop (Adobe). Colocalization was assessed with line scans using MetaMorph (MDS Analytical Technologies). For analysis of mitochondrial membrane potential in cells, mitochondrial voxels in each image (the cytochrome c channel threshold was ≧400 au) were segregated into Parkin-positive (the YFP-Parkin channel threshold was ≧1,100 au) or Parkin-negative subsets, and MitoTracker intensity for each voxel was measured using Volocity software (Improvision). For each cell, the mean MitoTracker intensity per voxel was calculated for the Parkin-positive and Parkin-negative subsets. […]

N#CC(C#N)=NNc1cccc(Cl)c1 [CCCP, carbonyl cyanide m-chlorophenylhydrazone]
endogenous Parkin level in the membrane pellet: increased levels in the membrane pellet
